Consider two compounds from ChEMBL document CHEMBL1158639, “Synthesis and in vivo evaluation of [11C]MPTQ: a potential PET tracer for alpha2A-adrenergic receptors” (Bioorg Med Chem Lett, 2010).

A short description of data set [1]: Metabolic stability in baboon brain assessed as compound remaining at 4.43 mCi after 30 mins. The following applies: papio anubis, read-out: Stability. Type of data set: ADME, tissue-based.
The nature of data set [2]: Metabolic stability in baboon brain assessed as compound remaining at 4.43 mCi after 90 mins. The following applies: papio anubis, read-out: Stability. It counts as ADME, tissue-based.
Data set [3] addresses T1, Alpha-2C adrenergic receptor (Homo sapiens, UniProt P18825).
T1 sequence (P18825 whole entry): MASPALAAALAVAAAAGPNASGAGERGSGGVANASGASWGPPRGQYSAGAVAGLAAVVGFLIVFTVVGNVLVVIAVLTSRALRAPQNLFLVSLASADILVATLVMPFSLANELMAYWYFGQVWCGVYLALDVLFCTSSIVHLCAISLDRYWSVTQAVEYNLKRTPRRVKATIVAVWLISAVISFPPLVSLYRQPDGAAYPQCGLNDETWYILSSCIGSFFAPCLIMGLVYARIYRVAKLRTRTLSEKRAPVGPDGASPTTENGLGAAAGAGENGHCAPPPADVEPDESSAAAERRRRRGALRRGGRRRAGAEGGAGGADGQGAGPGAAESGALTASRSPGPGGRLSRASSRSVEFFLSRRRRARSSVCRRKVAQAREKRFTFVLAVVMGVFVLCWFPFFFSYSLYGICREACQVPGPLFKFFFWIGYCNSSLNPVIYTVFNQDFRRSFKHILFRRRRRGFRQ
The data set can be described thus: Displacement of [3H]rauwolscine from adrenergic Alpha-2C receptor. On the technique in general: Loss of bound radioactivity is the signal in a displacement assay; it reports binding, not function.

Data set [4] addresses Sodium-dependent serotonin transporter (Homo sapiens, UniProt P31645). Kind of data set: Displacement of [3H]paroxetine from 5HTT receptor.

Sodium-dependent serotonin transporter, sequence (P31645 whole entry): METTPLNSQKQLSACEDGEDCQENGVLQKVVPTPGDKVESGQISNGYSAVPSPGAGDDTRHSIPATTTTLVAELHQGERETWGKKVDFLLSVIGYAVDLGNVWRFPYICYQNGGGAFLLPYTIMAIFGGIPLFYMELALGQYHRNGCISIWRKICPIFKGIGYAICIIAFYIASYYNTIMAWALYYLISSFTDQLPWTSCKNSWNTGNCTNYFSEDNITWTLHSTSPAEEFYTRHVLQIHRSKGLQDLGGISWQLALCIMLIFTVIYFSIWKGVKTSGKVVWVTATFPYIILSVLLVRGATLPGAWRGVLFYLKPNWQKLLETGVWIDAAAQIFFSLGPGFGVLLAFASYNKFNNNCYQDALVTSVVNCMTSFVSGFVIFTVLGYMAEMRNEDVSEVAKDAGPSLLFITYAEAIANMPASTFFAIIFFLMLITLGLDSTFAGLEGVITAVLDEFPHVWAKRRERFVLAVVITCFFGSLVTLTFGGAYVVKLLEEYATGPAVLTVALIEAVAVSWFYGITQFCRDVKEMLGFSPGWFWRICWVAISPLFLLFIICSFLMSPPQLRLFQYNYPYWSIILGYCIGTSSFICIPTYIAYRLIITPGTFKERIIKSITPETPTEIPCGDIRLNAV

As for `[11CH3]N1CC2C(=NO[C@H]2CN2CCN(C/C=C/c3ccccc3)CC2)c2ccccc21` (some centres undefined), in data set [1], the remaining at 0.5 h stood at 35%. For the same compound, the remaining at 1.5 h in data set [2] was found to be 21%.

For orientation: Ki means the equilibrium dissociation constant of an inhibitor or competing ligand from its target. Read a low Ki as higher affinity. As for `CN1CC2C(=NO[C@H]2CN2CCN(C/C=C/c3ccccc3)CC2)c2ccccc21` (some centres undefined), the Ki in data set [3] turned out to be 4.5 nM; in data set [4], 16 nM.
